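These data come from cells grown in 96-well plates and exposed to compound for 48 hours at five concentrations. GI50 marks 50% less growth.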 Active and inactive are the calls of the source. Cut-off read from the data, not from the text of the source: active = GI50 up to about 1.1 µM and inactive = higher. Non-standard residues stand in square brackets, D forms with d. Residues, ends and D or L forms follow the SMILES beside them. ξ: configuration not given here. Pen = CC(C)(S)[C@H](N)C(=O)O; ξL = CC(C)CC(N)C(=O)O

Among the test systems are A549; CCRF-CEM; COLO 205; HL-60; HOP-62; HT-29; IGROV-1; KM12; LOX IMVI; MOLT-4; NCI-H522; NCI/ADR-RES; SF-268; SK-MEL-28; SK-MEL-5; SK-OV-3; U-251; UACC-257; M14; RPMI-8226.
What all share (experiment): NCI anticancer screen, dose series, 48 h

Take `CSCC[C@H](NC(=O)C(CC(C)C)NC(=O)[C@H](Cc1c[nH]cn1)NC(=O)CNC(=O)[C@@H](NC(=O)[C@@H](C)NC(=O)[C@H](Cc1c[nH]c2ccccc12)NC(=O)[C@H](CCC(N)=O)NC(=O)[C@@H](N)CC(N)=O)C(C)(C)SC)C(N)=O` (stereo partly drawn) (H-NQW[dA][Pen](Me)GH[ξL]M-NH2): the GI50 in the experiment on A549, with CCRF-CEM, in the experiment on COLO 205, in the experiment with HL-60, in the experiment with HOP-62 and with HT-29 was > 100 µM (inactive) each time. For the same compound, the GI50 with IGROV-1, in the experiment with KM12, in the experiment with LOX IMVI, with MOLT-4, in the experiment with NCI-H522 and with NCI/ADR-RES was > 100 µM (inactive) throughout. The GI50 in the experiment with SF-268, in the experiment on SK-MEL-28, with SK-MEL-5, in the experiment on SK-OV-3, in the experiment with U-251 and in the experiment with UACC-257 was > 100 µM (inactive) throughout.

Take `CC(=C(c1ccccc1)c1ccccc1)N1C(=O)CC(=O)N1C`: the GI50 is 35 µM (inactive) in the experiment on A549; 40 µM (inactive) with CCRF-CEM; > 100 µM (inactive) with COLO 205; 27.5 µM (inactive) in the experiment on HOP-62; > 100 µM (inactive) in the experiment with HT-29; 18.3 µM (inactive) in the experiment on IGROV-1. Also, the GI50 in the experiment on KM12 was 50.4 µM (inactive); with LOX IMVI, 17 µM (inactive); in the experiment on M14, 24.7 µM (inactive); with MOLT-4 it was 38.4 µM (inactive); in the experiment on NCI/ADR-RES, > 100 µM (inactive); in the experiment on RPMI-8226, 32.6 µM (inactive). Moreover, the GI50 in the experiment with SF-268 is 25.5 µM (inactive); in the experiment on SK-MEL-28, 55.5 µM (inactive); with SK-MEL-5, 95.7 µM (inactive); in the experiment on SK-OV-3 it was > 100 µM (inactive); with U-251, 61.4 µM (inactive); with UACC-257, > 100 µM (inactive).

Turning to `C[n+]1[se]c2ccccc2c1Cl`, the GI50 with A549 is 32 µM (inactive); in the experiment with CCRF-CEM, 8.67 µM (inactive); with COLO 205 it was > 43.9 µM (inactive); in the experiment on HL-60 it was 7.89 µM (inactive); in the experiment with HOP-62, > 40.7 µM (inactive); with HT-29, 28.4 µM (inactive). The GI50 is 31 µM (inactive) with IGROV-1; > 40.2 µM (inactive) with KM12; 19.9 µM (inactive) in the experiment with LOX IMVI; 13.7 µM (inactive) in the experiment with M14; 13.5 µM (inactive) in the experiment with MOLT-4; 20.3 µM (inactive) with NCI-H522. Also, the GI50 in the experiment on RPMI-8226 was 33.1 µM (inactive); in the experiment with SF-268, 20.9 µM (inactive); with SK-MEL-28 it was 23.4 µM (inactive); with SK-MEL-5 it was 16.6 µM (inactive); in the experiment on SK-OV-3, > 89.3 µM (inactive); with U-251, 30.9 µM (inactive). Besides, the GI50 with UACC-257 is 17.9 µM (inactive).

For `CN1C(=O)CC(=O)N1/C(=C/c1ccccc1)c1ccccc1`, the GI50 in the experiment with A549 was 85.3 µM (inactive); in the experiment with CCRF-CEM, 21.3 µM (inactive); in the experiment with COLO 205 it was 41 µM (inactive); in the experiment with HOP-62, > 100 µM (inactive); with HT-29, > 100 µM (inactive); with IGROV-1, 18.2 µM (inactive). The GI50 is > 100 µM (inactive) in the experiment on KM12; 17 µM (inactive) in the experiment on LOX IMVI; 65.8 µM (inactive) in the experiment on M14; 30.3 µM (inactive) in the experiment on MOLT-4; > 100 µM (inactive) in the experiment with NCI/ADR-RES; 37.1 µM (inactive) in the experiment on RPMI-8226. Further, the GI50 in the experiment with SF-268 is > 100 µM (inactive); in the experiment with SK-MEL-28, > 100 µM (inactive); in the experiment with SK-MEL-5 it was 72.8 µM (inactive); in the experiment with SK-OV-3, > 100 µM (inactive); with U-251, > 100 µM (inactive); in the experiment with UACC-257, > 100 µM (inactive).

Regarding `COc1ccc2c(c1)c1c(n2CCN(C)C)-c2ccccc2CC1`, the GI50 is 15.6 µM (inactive) in the experiment with A549; 11.3 µM (inactive) in the experiment on CCRF-CEM; 12.5 µM (inactive) in the experiment with COLO 205; 16.4 µM (inactive) in the experiment with HOP-62; 7.78 µM (inactive) in the experiment on HT-29; 11.9 µM (inactive) in the experiment on IGROV-1. The GI50 in the experiment on KM12 is 14.4 µM (inactive); in the experiment on LOX IMVI, 16.6 µM (inactive); with M14, 15.6 µM (inactive); with MOLT-4, 13.2 µM (inactive); with NCI-H522, 18.5 µM (inactive); in the experiment with NCI/ADR-RES, 16.8 µM (inactive). Further, the GI50 in the experiment on RPMI-8226 was 13.7 µM (inactive); in the experiment on SF-268, 18.1 µM (inactive); in the experiment with SK-MEL-28, 15 µM (inactive); with SK-MEL-5, 14.9 µM (inactive); with SK-OV-3 it was 20.2 µM (inactive); in the experiment on U-251, 13.1 µM (inactive). Further, in the experiment on UACC-257, the GI50 is 16.3 µM (inactive).

As to `Cc1cc(O)c2c(c1O)C(=O)C13C(=C(O)C4C(O)C1C1C(O)C3C(O)=C3C(=O)c5c(O)cc(C)c(O)c5C(=O)C341)C2=O` (stereo not drawn), the GI50 with A549 is 0.0311 µM (active); with CCRF-CEM it was 0.035 µM (active); with COLO 205, 0.0276 µM (active); with HOP-62, 0.207 µM (active); in the experiment with HT-29 it was 0.0451 µM (active); with IGROV-1, 0.137 µM (active). For the same compound, the GI50 was 0.0726 µM (active) in the experiment on KM12; 0.106 µM (active) with LOX IMVI; 0.0541 µM (active) with MOLT-4; 0.185 µM (active) with NCI-H522; 0.15 µM (active) in the experiment with NCI/ADR-RES; 0.0121 µM (active) in the experiment with RPMI-8226. In addition, the GI50 is 0.0542 µM (active) in the experiment on SF-268; 0.106 µM (active) in the experiment on SK-MEL-28; 0.15 µM (active) in the experiment on SK-MEL-5; 0.0378 µM (active) in the experiment on SK-OV-3; 0.0214 µM (active) in the experiment with U-251; 0.267 µM (active) with UACC-257.

Take `COC(=O)C(Cc1ccc(N(C)C)cc1)(NC(=O)c1ccccc1)P(=O)(OC)OC` (stereo not drawn): the GI50 with A549, with CCRF-CEM, in the experiment with COLO 205, in the experiment with HL-60, with HOP-62 and in the experiment with HT-29 was > 100 µM (inactive) in each case. The GI50 with IGROV-1, with KM12, in the experiment with LOX IMVI, in the experiment with M14, in the experiment with MOLT-4 and in the experiment on NCI-H522 was > 100 µM (inactive) throughout. Moreover, the GI50 in the experiment on RPMI-8226, in the experiment with SF-268, in the experiment on SK-MEL-28, with SK-MEL-5, in the experiment on SK-OV-3 and in the experiment on U-251 was > 100 µM (inactive) throughout. In the experiment on UACC-257, the GI50 is > 100 µM (inactive).

For the compound `c1ccc2c(c1)SCCc1cn[nH]c1-2`, the GI50 in the experiment with A549, in the experiment on CCRF-CEM, with COLO 205, in the experiment on HL-60, in the experiment on HOP-62 and in the experiment on HT-29 was > 100 µM (inactive) each time. Besides, the GI50 in the experiment with IGROV-1, in the experiment on KM12, in the experiment with LOX IMVI, in the experiment with MOLT-4, with NCI-H522 and in the experiment on NCI/ADR-RES was > 100 µM (inactive) throughout. Moreover, the GI50 in the experiment with SF-268, in the experiment on SK-MEL-28, in the experiment with SK-MEL-5, in the experiment with SK-OV-3, in the experiment on U-251 and in the experiment with UACC-257 was > 100 µM (inactive) each time.

With `CN(C)C(=O)C(F)(F)C(c1ccc(Br)cc1)C1C(=O)N(C)C(=O)N(C)C1=O` (stereo not drawn), the GI50 in the experiment with A549, with CCRF-CEM, in the experiment on COLO 205, with HOP-62, in the experiment with KM12 and in the experiment on LOX IMVI was > 100 µM (inactive) each time. Also, the GI50 in the experiment on M14, in the experiment on NCI/ADR-RES, in the experiment on RPMI-8226, in the experiment on SF-268, in the experiment with SK-MEL-28 and in the experiment with SK-MEL-5 was > 100 µM (inactive) each time. Moreover, the GI50 in the experiment on SK-OV-3, in the experiment on U-251 and in the experiment with UACC-257 was > 100 µM (inactive) each time.

On to `COC(=O)C(/C(=N/NC(N)=S)C(=O)Nc1ccccc1[N+](=O)[O-])c1cnc2ccccc2n1` (stereo not drawn), for which the GI50 in the experiment with A549, with CCRF-CEM, in the experiment with COLO 205, in the experiment on HL-60, in the experiment with HOP-62 and with HT-29 was > 100 µM (inactive) throughout. For the same compound, the GI50 in the experiment on IGROV-1 was > 100 µM (inactive); in the experiment on KM12, > 100 µM (inactive); with LOX IMVI, > 100 µM (inactive); in the experiment on M14, > 100 µM (inactive); with MOLT-4, 83 µM (inactive); with NCI-H522 it was > 100 µM (inactive). Further, the GI50 with RPMI-8226, in the experiment on SF-268, in the experiment on SK-MEL-28, with SK-MEL-5, with SK-OV-3 and in the experiment on U-251 was > 100 µM (inactive) in each case. The GI50 with UACC-257 was > 100 µM (inactive).

As to `Cc1ccc(S(=O)(=O)NC(=O)OC23COCN2COC3)cc1`, the GI50 in the experiment on A549, with COLO 205, in the experiment with HOP-62, with HT-29, in the experiment on IGROV-1 and in the experiment on KM12 was > 100 µM (inactive) in each case. Moreover, the GI50 with LOX IMVI is > 100 µM (inactive); with M14, > 100 µM (inactive); with NCI-H522, > 100 µM (inactive); in the experiment with NCI/ADR-RES, > 100 µM (inactive); with RPMI-8226 it was 29.5 µM (inactive); in the experiment with SF-268 it was > 100 µM (inactive). In addition, the GI50 with SK-MEL-28, in the experiment on SK-MEL-5, in the experiment on SK-OV-3, in the experiment on U-251 and with UACC-257 was > 100 µM (inactive) in each case.
